Test results as given in patent US11147746B2, “Hydrophobic dental surfaces” (priority 2016, dated 2021).
No end group written: not given here.

Assays:
[1] = Saliva (enzyme) challenge of coated dentin, then WCA and acidic dye penetration; design: species or system bovine; details: saliva at 37° C. for three consecutive days
Description: Peptide-coated dentin samples were challenged with saliva, which includes enzymes. Bovine dentin slabs, prepared as discussed above with reference to EXAMPLE 2, were incubated in freshly collected and filtered saliva (thus exposed to biodegrading enzymes) at 37° C. for three consecutive days. The WCA was subsequently measured, and the samples were further immersed in acidic blue dye for 4 h. GL13K-coated dentin retained its hydrophobic character after the challenge, with average WCA=105°. FIG. 7A is a photograph showing a transverse cross-section of a tooth slab including enamel and dentin and treated with a buffer solution, exposed to saliva for three days, and subjected to an acidic blue dye.

[2] = Water contact angle (sessile drop) on peptide-coated dentin; assay type: physicochemical
Source text: The water contact angle (WCA) may be measured using the sessile drop method with deionized water as probe liquid. The sessile drop is the most common method for optical measurement of the contact angle using drop shape analysis. Measurement of the contact angle of a sessile drop that lies on the surface of a solid may be made with a contact angle goniometer, which allows measuring the contact angle visually by capturing the profile of a pure liquid on a solid substrate. The angle formed between the liquid-solid interface and the liquid-vapor interface is determined to be the water contact angle. A droplet is deposited by a syringe which is positioned above the sample surface, and a high-resolution camera may be used to capture the image from the profile or side view. The image may be analyzed using image analysis software. The measurement may be referred to as a static contact angle measurement. The change in WCA, or ΔWCA, is the difference between the average water contact angles after predetermined intervals of time, for example, 1 s and 21 s of drop contact with the tested surface, or the difference between the initial and the final water contact angles.
Water contact angles described according to the disclosure are with reference to the sessile drop technique, using a drop volume or 2-5 μL, for example, 3 μL. Similar or different values of WCA and ΔWCA for the same tested surfaces may be obtained using other methods to determine wettability of surfaces, such as the Wilhelmy method, or when using different drop volumes. In some examples, one or more of these or other techniques may be used to determine the WCA or ΔWCA.
The wettability of coated etched dentin with these peptides was evaluated in different conditions, for example, single or double GL13K coatings, rinsing with water or alcohol after coating, after deproteinization, with blow drying, alcohol drying, combinations of the two, or progressive alcohol drying after dentin etching, and using the same buffer solutions with or without peptides. Dynamic water contact angles (WCA) of water drops placed on the treated dentin surfaces were measured.
A drop of 3 μL of deionized water was dispensed using a contact angle meter (DCM-E1, Kyowa, Japan) on top of the dentin surfaces with and without treatments. Images of the drop were automatically taken with the camera of the contact angle meter every second for 21 s; i.e., until the shape of the drop on the surface was stable for all surfaces analyzed. The shape of the profile of the drop on the surface was then automatically identified by the equipment's software (Famas, Kyowa, Japan) and the contact angle between the liquid-solid interface and the liquid-vapor interface was determined. The reported WCA are average values at the end of the test; i.e., after 21 s the drop was in contact with the tested surface for at least 3 different drops in three different surfaces for each dentin treatment. ΔWCA is the difference between the average water contact angles after 1 s and 21 s of drop contact with the tested surface; i.e., the difference between the initial and the final water contact angles.
A de-proteinization step was used to remove demineralized/exposed collagen. […] A super-hydrophobic GL13K-coated dentin surface with water contact angles up to 100 was produced.

[3] = dentin prepared with the deproteinized method, then coated (samples S12, S14, S16)
[4] = progressive dehydration protocol (increasing ethanol concentrations)

Sequence	average WCA after saliva challenge [1] [°]	WCA [2, 3] [°]	water contact angles ([2]; etching, wet de-proteinization with 5% NaOCl, coating without alcohol dehydration (Example 8))	WCA [2, 4] [°]	ΔWCA [2, 4] [°]	WCA ([2]; single coating on etched dentin, alcohol rinse and blow drying) [°]	WCA ([2]; single coating on etched dentin, water rinse and blow drying) [°]	WCA ([2]; two coating treatments, rinsing with alcohol) [°]	variation of water contact angle over time ([2]; with respect to the etched dentin)
GKIIKLKASLKLL [GL13K]	105	85	up to 100	120	4	55	70	100	significantly reduced
VRLIVAVRIWRR [Sample 1018]		84							
